Experimental data reported in ChEMBL document CHEMBL1144555, “Chemoenzymatic synthesis and antimicrobial activity evaluation of monoglucosyl diglycerides” (2007).
≈ marks a conversion by molar mass, not a printed value.

Assays:
Type in all cases: functional
[1] = tested on: Staphylococcus aureus; assay: Antimicrobial activity against Staphylococcus aureus 87
[2] = tested on: Kluyveromyces marxianus; assay: Antimicrobial activity against Candida pseudotropicalis
[3] = tested on: Mycobacterium tuberculosis; assay: Antimicrobial activity against Mycobacterium tuberculosis H160
[4] = tested on: Mycobacterium tuberculosis; assay: Antimicrobial activity against Mycobacterium tuberculosis H190
[5] = tested on: Staphylococcus aureus; assay: Antimicrobial activity against Staphylococcus aureus ATCC 25923
[6] = tested on: Escherichia coli; assay: Antimicrobial activity against Escherichia coli ATCC 25922
[7] = tested on: Enterococcus faecalis; assay: Antimicrobial activity against Enterococcus faecalis ATCC 29212
[8] = tested on: Pseudomonas aeruginosa; assay: Antimicrobial activity against Pseudomonas aeruginosa ATCC 27753
[9] = tested on: Staphylococcus aureus; assay: Antimicrobial activity against Staphylococcus aureus 52
[10] = tested on: Staphylococcus aureus; assay: Antimicrobial activity against Staphylococcus aureus ATCC 105487
[11] = tested on: Candida albicans; assay: Antimicrobial activity against Candida albicans
[12] = tested on: Staphylococcus aureus; assay: Antimicrobial activity against Staphylococcus aureus 85
[13] = tested on: Bacillus subtilis; assay: Antimicrobial activity against Bacillus subtilis ATCC 6633
[14] = tested on: Mycobacterium tuberculosis; assay: Antimicrobial activity against Mycobacterium tuberculosis H37Rv

Row | Compound | MIC [1] [µg/mL] | MIC [2] [µg/mL] | MIC [3] [µg/mL] | MIC [4] [µg/mL] | MIC [5] [µg/mL] | MIC [6] [µg/mL] | MIC [7] [µg/mL] | MIC [8] [µg/mL] | MIC [9] [µg/mL] | MIC [10] [µg/mL] | MIC [11] [µg/mL] | MIC [12] [µg/mL] | MIC [13] [µg/mL] | MIC [14] [µg/mL]
1 | CCCCCCCC/C=C/CCCCCCCC(=O)OCC(CO[C@@H]1O[C@H](CO)[C@@H](O)[C@H](O)[C@H]1O)OC(=O)CCCCCCC/C=C/CCCCCCCC (mixture of isomers) | > 128 | > 128 | > 128 | > 128 | > 128 | > 128 | > 128 | > 128 | > 128 | > 128 | > 128 | > 128 | > 128 | > 128
2 | Clc1ccc(COC(Cn2ccnc2)c2ccc(Cl)cc2Cl)c(Cl)c1 (centres undefined) [MICONAZOLE] | – | 0.5 (≈ 1.2 µM) | – | – | – | – | – | – | – | – | 8 (≈ 19.2 µM) | – | – | –
3 | CC/C=C/C/C=C/C/C=C/CCCCCCCC(=O)OC(COC(=O)CCCCCCCCC)CO[C@@H]1O[C@H](CO)[C@@H](O)[C@H](O)[C@H]1O (mixture of isomers) | 32 | > 128 | > 128 | > 128 | > 128 | > 128 | > 128 | > 128 | > 128 | > 128 | > 128 | 64 | > 128 | > 128
4 | CC/C=C/C/C=C/C/C=C/CCCCCCCC(=O)OC(COC(=O)CCCCCCC)CO[C@@H]1O[C@H](CO)[C@@H](O)[C@H](O)[C@H]1O (mixture of isomers) | 64 | > 128 | 128 | 64 | > 128 | > 128 | > 128 | > 128 | > 128 | > 128 | > 128 | > 128 | 128 | 64
5 | CCCCCCCCCCCCCCCCCC(=O)OCC(CO[C@@H]1O[C@H](CO)[C@@H](O)[C@H](O)[C@H]1O)OC(=O)CCCCCCCCCCCCCCCCC (mixture of isomers) | > 128 | > 128 | > 128 | > 128 | > 128 | > 128 | > 128 | > 128 | > 128 | > 128 | > 128 | > 128 | > 128 | > 128
6 | CCCCCCCCCCCC(=O)OCC(CO[C@@H]1O[C@H](CO)[C@@H](O)[C@H](O)[C@H]1O)OC(=O)CCCCCCCCCCC (mixture of isomers) | > 128 | > 128 | > 128 | > 128 | > 128 | > 128 | > 128 | > 128 | > 128 | > 128 | > 128 | > 128 | > 128 | > 128
7 | CCCCCCCC(=O)OCC(CO[C@@H]1O[C@H](CO)[C@@H](O)[C@H](O)[C@H]1O)OC(=O)CCCCCCC (mixture of isomers) | 16 | > 128 | 64 | 64 | 16 | > 128 | 32 | > 128 | > 128 | 32 | > 128 | 16 | 16 | 64
8 | CCCCC/C=C/C/C=C/CCCCCCCC(=O)OCC(CO[C@@H]1O[C@H](CO)[C@@H](O)[C@H](O)[C@H]1O)OC(=O)CCCCCCC/C=C/C/C=C/CCCCC (mixture of isomers) | 64 | > 128 | 64 | 128 | > 128 | > 128 | > 128 | > 128 | > 128 | > 128 | > 128 | > 128 | 128 | 64
9 | CCCCCCCC/C=C/CCCCCCCC(=O)OC(COC(=O)CCCCCCCCC)CO[C@@H]1O[C@H](CO)[C@@H](O)[C@H](O)[C@H]1O (mixture of isomers) | > 128 | > 128 | > 128 | > 128 | 8 | > 128 | > 128 | > 128 | > 128 | > 128 | > 128 | 128 | 32 | > 128
10 | CC/C=C/C/C=C/C/C=C/CCCCCCCC(=O)OCC(CO[C@@H]1O[C@H](CO)[C@@H](O)[C@H](O)[C@H]1O)OC(=O)CCCCCCC/C=C/C/C=C/C/C=C/CC (some centres undefined) | > 128 | > 128 | > 128 | > 128 | > 128 | > 128 | > 128 | > 128 | > 128 | > 128 | > 128 | > 128 | > 128 | > 128
11 | CCCCCCCC/C=C/CCCCCCCC(=O)OC(COC(=O)CCCCCCC)CO[C@@H]1O[C@H](CO)[C@@H](O)[C@H](O)[C@H]1O (mixture of isomers) | 64 | > 128 | 64 | 64 | > 128 | > 128 | > 128 | > 128 | > 128 | > 128 | > 128 | > 128 | 128 | 64
12 | O=C(O)c1cn(C2CC2)c2cc(N3CCNCC3)c(F)cc2c1=O [CIPROFLOXACIN] | 0.5 (≈ 1.51 µM) | – | 0.5 (≈ 1.51 µM) | 0.5 (≈ 1.51 µM) | 0.5 (≈ 1.51 µM) | – | 1 (≈ 3.02 µM) | 1 (≈ 3.02 µM) | > 4 | 0.25 (≈ 0.754 µM) | – | 0.5 (≈ 1.51 µM) | 0.25 (≈ 0.754 µM) | 0.5 (≈ 1.51 µM)
13 | CCCCCCCCCC(=O)OCC(CO[C@@H]1O[C@H](CO)[C@@H](O)[C@H](O)[C@H]1O)OC(=O)CCCCCCCCC (mixture of isomers) | 64 | > 128 | 64 | 64 | > 128 | > 128 | > 128 | > 128 | > 128 | > 128 | > 128 | > 128 | > 128 | 128
14 | CCCCC/C=C/C/C=C/CCCCCCCC(=O)OC(COC(=O)CCCCCCC)CO[C@@H]1O[C@H](CO)[C@@H](O)[C@H](O)[C@H]1O (mixture of isomers) | 64 | > 128 | 128 | 64 | > 128 | > 128 | > 128 | > 128 | > 128 | > 128 | > 128 | > 128 | 128 | 64
15 | CCCCCCCCCCCCCC(=O)OCC(CO[C@@H]1O[C@H](CO)[C@@H](O)[C@H](O)[C@H]1O)OC(=O)CCCCCCCCCCCCC (some centres undefined) | > 128 | > 128 | > 128 | > 128 | > 128 | > 128 | > 128 | > 128 | > 128 | > 128 | > 128 | > 128 | > 128 | > 128
16 | CCCCC/C=C/C/C=C/CCCCCCCC(=O)OC(COC(=O)CCCCCCCCC)CO[C@@H]1O[C@H](CO)[C@@H](O)[C@H](O)[C@H]1O (mixture of isomers) | > 32 | > 128 | > 128 | > 128 | > 128 | > 128 | 64 | > 128 | > 128 | 32 | > 128 | 32 | 128 | > 128
